Broadly, the Ki is a measure of affinity in units of concentration, obtained from inhibition or displacement. High values mean weaker binding, low ones tighter binding.

Molecules are shown by their SMILES.

T2 sequence (P31644 32-462): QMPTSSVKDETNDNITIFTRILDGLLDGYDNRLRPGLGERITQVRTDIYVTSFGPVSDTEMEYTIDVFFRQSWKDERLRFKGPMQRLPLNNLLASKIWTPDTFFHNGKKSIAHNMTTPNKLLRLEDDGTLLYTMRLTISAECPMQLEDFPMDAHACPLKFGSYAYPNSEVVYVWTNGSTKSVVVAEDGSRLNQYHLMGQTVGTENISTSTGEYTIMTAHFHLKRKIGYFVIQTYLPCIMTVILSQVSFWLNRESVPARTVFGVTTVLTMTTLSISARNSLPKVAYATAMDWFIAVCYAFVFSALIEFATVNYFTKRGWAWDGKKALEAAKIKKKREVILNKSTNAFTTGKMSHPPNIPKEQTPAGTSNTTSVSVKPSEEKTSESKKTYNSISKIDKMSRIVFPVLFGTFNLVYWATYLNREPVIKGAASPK
T2 sequence (P47870 25-512 partner limits assumed): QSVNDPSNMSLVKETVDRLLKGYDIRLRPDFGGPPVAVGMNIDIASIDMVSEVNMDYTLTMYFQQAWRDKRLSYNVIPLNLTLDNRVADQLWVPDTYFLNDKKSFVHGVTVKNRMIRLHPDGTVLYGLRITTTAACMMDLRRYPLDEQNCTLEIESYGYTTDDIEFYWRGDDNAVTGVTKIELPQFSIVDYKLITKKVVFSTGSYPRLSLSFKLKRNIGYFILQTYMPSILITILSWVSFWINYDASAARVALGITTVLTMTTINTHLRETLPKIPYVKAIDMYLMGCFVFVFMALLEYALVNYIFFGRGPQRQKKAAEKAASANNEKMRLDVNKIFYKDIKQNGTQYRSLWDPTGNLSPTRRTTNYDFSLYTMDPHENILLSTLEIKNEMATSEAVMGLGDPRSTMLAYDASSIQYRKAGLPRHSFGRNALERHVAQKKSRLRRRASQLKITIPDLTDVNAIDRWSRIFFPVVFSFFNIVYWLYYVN
T2 sequence (P18507 40-475): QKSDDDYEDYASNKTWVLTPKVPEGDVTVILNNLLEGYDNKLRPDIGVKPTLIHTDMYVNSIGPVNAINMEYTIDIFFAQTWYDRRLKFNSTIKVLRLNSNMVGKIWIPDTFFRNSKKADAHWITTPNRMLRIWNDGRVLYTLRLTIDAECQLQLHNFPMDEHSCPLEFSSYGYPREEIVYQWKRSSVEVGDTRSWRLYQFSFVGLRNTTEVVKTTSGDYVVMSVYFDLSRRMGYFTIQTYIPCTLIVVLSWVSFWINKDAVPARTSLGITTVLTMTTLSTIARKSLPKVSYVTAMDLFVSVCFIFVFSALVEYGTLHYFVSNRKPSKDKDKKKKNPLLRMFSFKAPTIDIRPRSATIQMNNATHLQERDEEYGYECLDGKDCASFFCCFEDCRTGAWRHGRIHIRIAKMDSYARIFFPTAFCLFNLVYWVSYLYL

The target in one assay is T1, α5β3γ2 GABAA receptors (Ltk cells) (Homo sapiens, UniProt P18507+P31644).
T1 construct: membranes
T1 sequence (P31644 32-462): as the sequence (P31644 32-462) above
T1 sequence (P28472 26-473 partner): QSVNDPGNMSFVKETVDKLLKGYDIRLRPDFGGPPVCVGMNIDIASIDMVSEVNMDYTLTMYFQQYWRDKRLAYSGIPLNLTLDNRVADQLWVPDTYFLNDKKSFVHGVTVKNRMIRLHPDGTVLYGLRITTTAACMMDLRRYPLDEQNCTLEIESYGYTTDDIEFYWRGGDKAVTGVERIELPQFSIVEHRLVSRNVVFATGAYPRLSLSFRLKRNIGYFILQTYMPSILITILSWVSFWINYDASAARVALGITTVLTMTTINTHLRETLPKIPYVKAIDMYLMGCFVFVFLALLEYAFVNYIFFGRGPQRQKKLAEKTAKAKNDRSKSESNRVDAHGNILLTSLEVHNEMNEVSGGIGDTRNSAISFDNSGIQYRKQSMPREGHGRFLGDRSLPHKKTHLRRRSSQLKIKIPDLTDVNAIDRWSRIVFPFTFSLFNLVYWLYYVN
T1 sequence (P18507 40-475): as the sequence (P18507 40-475) above
The assay can be described thus: Binding activity on GABAAR: inhibition of [3H]Ro15-1788 binding.
Details: not given
As for the experimental part:
Tissue culture and Membrane Preparation: The binding was performed on Ltk cells stably expressing GABAA receptors: α1β1γ2, α2β3γ2, α3β3γ2 and α5β3γ2 (provided by Merck Co., NJ, USA). Cells were seeded in 100 mm culture plates in DMEM/F12 medium containing 10% serum and antibiotics in 5% CO2 and allowed to grow for 1-2 days. GABAAR expression was then induced by dexamethasone as follows: 0.5 μM for 1 day for α5 containing and 2 μM for 3 days for α1, α2 and α3 containing GABAARs. After induction, cells were collected by scraping into Dulbecco's Phosphate buffered saline (DPBS, pH 7.4, Invitrogen, Carlsbad, Calif., USA) and centrifuged at 150×g for 10 min. The pellet was washed twice by re-suspension and centrifugation. The cell pellets from at least 5 different preps were combined, suspended in the binding assay buffer (50 mM KH2PO4; 1 mM EDTA; 0.2 M KCl, pH 7.4) and membranes prepared by sonication (3-5 times, 30 sec) using Branson Sonifier 150 (G. Heinmann, Germany). Protein content was determined using BCA assay (Bio-Rad Labs, Reinach, Switzerland) with Bovine Serum Albumin (Sigma Aldrich, St. Louis, Mo., USA) as the standard. Aliquots were prepared and stored at −20° C. for further use in binding assays.
Ligand Binding: Saturation binding curves were obtained by incubating membranes with increasing concentrations (0.01-8 nM) of [^3H]Ro15-1788 (Flumazepil, 75-85 Ci/mmol, PerkinElmer, MA, USA), with nonspecific binding measured in the presence of 10 μM diazepam.
All binding assays were performed for 1 h at 4° C. in assay buffer. The total assay volume was 0.5 ml containing 0.2 mg/ml protein for α5 and 0.4 mg/ml for α1, α2, and α3 containing GABAAR membranes. Incubations were terminated by filtration through GF/B filters using a 24-Cell Harvestor (Brandel, Gaithersburg, Md., USA) followed by 3 washes with ice-cold assay buffer. Filters were transferred to scintillation vials, 5 ml scintillation liquid added, vortex-mixed and kept in dark. Next day, radioactivity was obtained using a scintillation counter (Beckman Coulter, Brea, Calif., USA). All assays were performed in triplicate.
Data Analyses: Saturation and inhibition curves were obtained using GraphPad Prism software (GraphPad Software, Inc., CA, USA).
For `COc1ccc2c(c1)-n1nncc1Cc1c(C3=N[C@@H](c4ccccc4)CO3)ncn1-2` [Compound 289], the Ki is less than 0.099 µM.
In turn, `C#Cc1ccc2c(c1)-c1nnc(COC)n1Cc1c(C3=N[C@H](CC(C)C)CO3)ncn1-2` [Compound 280] showed a Ki of less than 0.099 µM.
In turn, `COCc1nnc2n1Cc1c(-c3nc(C(C)C)no3)ncn1-c1ccc(Cl)cc1-2` [Compound 206] came in with a Ki of less than 0.099 µM.
The same measure, in the same setting: next, `COc1ccc2c(c1)-c1nnc(COc3cccnc3)n1Cc1c(Br)ncn1-2` [Compound 235]: less than 0.099 µM; `C#CCNC(=O)c1ncn2c1Cn1c(COC)nnc1-c1cc(Cl)ccc1-2` [Compound 234]: greater than 1 µM.
`CCOCc1nnc2n1Cc1c(C3=NC(C)CO3)ncn1-c1ccc(Cl)cc1-2` (stereo not drawn) [Compound 259] gave a Ki of less than 0.099 µM.
`COCc1nnc2n1Cc1c(C3=NC[C@H](C)O3)ncn1-c1ccc(Cl)cc1-2` [Compound 295]: the Ki is less than 0.099 µM.
Same read-out and setting: next, `COCc1nnc2n1Cc1c(Br)ncn1-c1ccc(Cl)cc1-2` [Compound 217]: less than 0.099 µM.
Take `CC(C)OCc1nnc2n1Cc1c(-c3nc(-c4ccccc4)co3)ncn1-c1ccc(Cl)cc1-2` [Compound 276]: the Ki is less than 0.099 µM.
As to `CCOC(=O)c1ncn2c1Cc1c(Cc3ccccc3Cl)nnn1-c1cc(C)ccc1-2` [Compound 54], the Ki was less than 0.099 µM.
In turn, `CCOCc1nnc2n1Cc1c(Br)ncn1-c1ccc(Cl)cc1-2` [Compound 216] displayed a Ki of less than 0.099 µM.
Turning to `COc1ccc2c(c1)-n1nncc1Cc1c(C3=N[C@H](C)CO3)ncn1-2` [Compound 291], the Ki is less than 0.099 µM.
With `COCc1nnc2n1Cc1c(-c3cc(C)no3)ncn1-c1ccc(Cl)cc1-2` [Compound 233], the inhibition constant Ki was less than 0.099 µM.
Regarding `COCc1nnc2n1Cc1c(C3=N[C@H](C)CO3)ncn1-c1ccc(Cl)cc1-2` [Compound 282], the Ki was less than 0.099 µM.
`CC(C)OCc1nnc2n1Cc1c(C3=N[C@H](c4ccccc4)CO3)ncn1-c1ccc(Cl)cc1-2` [Compound 268] had a Ki of less than 0.099 µM.
Compound `COCc1nnc2n1Cc1c(-c3ncc(C)o3)ncn1-c1ccc(Cl)cc1-2` [Compound 296] gave an inhibition constant Ki of less than 0.099 µM.
On to `C#Cc1ccc2c(c1)-c1nnc(COC)n1Cc1c(C3=N[C@@H](c4ccccc4)CO3)ncn1-2` [Compound 301], for which the Ki is less than 0.099 µM.
The same measure, in the same setting: under `N#Cc1ncn2c1Cc1c(COc3cccc(F)c3)nnn1-c1cc(Cl)ccc1-2` [Compound 227] stands less than 0.099 µM; under `CC(C)c1nc(-c2ncn3c2Cc2c(C(=O)c4ccc(F)cc4)nnn2-c2ccc(F)cc2-3)no1` [Compound 230], less than 0.099 µM.
In the case of `Cc1cccc(C)c1OCc1nnc2n1Cc1c(-c3noc(C(C)C)n3)ncn1-c1ccc(F)cc1-2` [Compound 190], the Ki was less than 0.099 µM.
The same measure, in the same setting: next, `COc1ccc2c(c1)-n1nnc(Cc3cccc(Cl)c3)c1Cc1c(C#N)ncn1-2` [Compound 209]: less than 0.099 µM.
The compound `CCOCc1nnc2n1Cc1c(C3=N[C@@H](c4ccccc4)CO3)ncn1-c1ccc(Cl)cc1-2` [Compound 275] returned a Ki of less than 0.099 µM.
In turn, `COc1ccc2c(c1)-c1nnc(COc3ccccc3)n1Cc1c(Br)ncn1-2` [Compound 232] had a Ki of less than 0.099 µM.
In turn, `COc1ccc2c(c1)-n1nnc(C)c1Cc1c(-c3nc(C(C)C)no3)ncn1-2` [Compound 277] registered a Ki of less than 0.099 µM.
Compound `N#Cc1ncn2c1Cn1c(COc3ccccc3)nnc1-c1cc(Cl)ccc1-2` [Compound 197] showed an inhibitory constant (Ki) of less than 0.099 µM.
On to `CC(C)OCc1nnc2n1Cc1c(C3=N[C@@H](c4ccccc4)CO3)ncn1-c1ccc(Cl)cc1-2` [Compound 270], for which the Ki is less than 0.099 µM.
Compound `C#Cc1ccc2c(c1)-c1nnc(COC)n1Cc1c(-c3nc(-c4ccccc4)co3)ncn1-2` [Compound 302] displayed a Ki of less than 0.099 µM.
Consider `COc1ccc2c(c1)-n1nnc(COc3ccccc3F)c1Cc1c(C#N)ncn1-2` [Compound 223], for which the Ki was less than 0.099 µM.
Compound `FC(F)(F)COCc1nnc2n1Cc1c(C3=N[C@@H](c4ccccc4)CO3)ncn1-c1ccc(Cl)cc1-2` [Compound 304] gave a Ki of less than 0.099 µM.
Same read-out and setting: next, `COCc1nnc2n1Cc1c(-c3nc(-c4ccccc4)co3)ncn1-c1ccc(Cl)cc1-2` [Compound 245]: less than 0.099 µM.
The compound `CCOC(=O)c1ncn2c1Cc1c(Cc3ccc(F)cc3)nnn1-c1cc(F)ccc1-2` [Compound 46] came in with a Ki of less than 0.099 µM.
With `CCOC(=O)c1ncn2c1Cc1c(C)nnn1-c1cc(C)ccc1-2` [Compound 102], the Ki was less than 0.099 µM.
On the same count and under the same terms, next, `C#Cc1ncn2c1Cn1c(COc3cccnc3)nnc1-c1cc(OC)ccc1-2` [Compound 241]: less than 0.099 µM.
The compound `COCc1nnc2n1Cc1c(-c3nc(C)co3)ncn1-c1ccc(Cl)cc1-2` [Compound 244] displayed an inhibitory constant (Ki) of less than 0.099 µM.
On to `COc1ccc2c(c1)-n1nnc(Cc3ccccc3Cl)c1Cc1c(C#N)ncn1-2` [Compound 208], for which the Ki was less than 0.099 µM.
On to `COCc1nnc2n1Cc1c(C3=NC(c4ccccc4)CO3)ncn1-c1ccc(Cl)cc1-2` (stereo not drawn) [Compound 242], for which the Ki was less than 0.099 µM.
For the compound `COc1ccc2c(c1)-n1nncc1Cc1c(-c3nc(C)no3)ncn1-2` [Compound 258], the Ki was less than 0.099 µM.
`C#Cc1ncn2c1Cn1c(COC(C)C)nnc1-c1cc(Cl)ccc1-2` [Compound 288] showed a Ki of less than 0.099 µM.
In turn, `COCc1nnc2n1Cc1c(C3=N[C@H](c4ccccc4)CO3)ncn1-c1ccc(Cl)cc1-2` [Compound 263] displayed a Ki of less than 0.099 µM.
On the same count and under the same terms, next, `COCc1nnc2n1Cc1c(C#Cc3ccccc3)ncn1-c1ccc(Cl)cc1-2` [Compound 285]: less than 0.099 µM.
`COCc1nnc2n1Cc1c(C3=NC[C@@H](C)O3)ncn1-c1ccc(Cl)cc1-2` [Compound 294]: the Ki is less than 0.099 µM.
Still for that read-out and setting: next, `CCOCc1nnc2n1Cc1c(C3=NC(c4ccccc4)CO3)ncn1-c1ccc(Cl)cc1-2` (stereo not drawn) [Compound 260]: less than 0.099 µM.
`CCOC(=O)c1ncn2c1Cc1c(Cc3ccccc3)nnn1-c1cc(C)ccc1-2` [Compound 101] had a Ki of less than 0.099 µM.
On to `C#Cc1ncn2c1Cc1c(C(=O)c3ccc(F)cc3)nnn1-c1cc(OC)ccc1-2` [Compound 218], for which the Ki is less than 0.099 µM.
Same read-out and setting: under `C#Cc1ncn2c1Cn1c(COCC)nnc1-c1cc(Cl)ccc1-2` [Compound 261] stands less than 0.099 µM; under `C#Cc1ncn2c1Cn1c(COc3ccccc3)nnc1-c1cc(OC)ccc1-2` [Compound 236], less than 0.099 µM.

A further assay concerns the target T2, GABAA receptors (α5β2γ2) (Homo sapiens, UniProt P18507+P31644).
T2 construct: expressed in transfected cells
The assay can be described thus: Positive allosteric modulator activity: potentiation of EC20 GABA current in oocytes. The format is cell-based. The following applies: read-out: GABA α5 functional potentiation. As for the experimental part: On day 1, 1 ng/32 nL of GABAA α5β2γ2 cDNA was injected into one oocyte. Test starts on day 2. The cDNA injected to the oocytes was a mix of alpha, beta and gamma, their ratio is 1:1:10 (by weight) and the total weight of the mixed 3 subunits to be injected in one oocyte was 1 ng in 32 nl volume. The injected oocytes can also be tested on day 3. In such case, the cDNA amount injected to the oocytes should be reduced by 20%.
1). 8 oocytes were placed in 8 chambers of OpusXpress and superfused with Modified Barth's Saline (MBS) at 3 mL/min. Glass electrodes back-filled with 3M KCl (0.5-3 megaohms) were used.
1). Repeat the above steps 1), 2) and 3) in the control test.
2). […] Divide Itest by IGABA to obtain potentiation (%).
3). Discard all tested oocytes, new oocytes were used and the above steps 1) and 2) were repeated to test second concentration of the same compound. Each oocyte was used for only one concentration test for a single test compound. The steps were repeated for other test compounds.
For the compound `CCOC(=O)c1ncn2c1Cc1c(C)nnn1-c1cc(F)ccc1-2` [Compound 2], the activation at 0.1 µM lay in the range of 20 to 49%.
Take `Cc1nnn2c1Cc1c(-c3nc(C(C)C)no3)ncn1-c1ccccc1-2` [Compound 132]: the activation at 0.1 µM fell in the range of 20 to 49%.
For `CC(C)c1nc(-c2ncn3c2Cn2c(COc4ccccc4)nnc2-c2cc(F)ccc2-3)no1` [Compound 147], the activation at 0.1 µM lay within 20 to 49%.
As for `Cc1nc(-c2ncn3c2Cc2c(C)nnn2-c2ccccc2-3)no1` [Compound 127], the activation at 0.1 µM lay in the range of 20 to 49%.
Regarding `Cc1nnn2c1Cc1c(-c3noc(C(C)(C)C)n3)ncn1-c1ccc(F)cc1-2` [Compound 160], the activation at 0.1 µM is greater than 50%.
As for `COc1ccc2c(c1)-c1nnc(COc3ccccc3F)n1Cc1c(-c3noc(C(C)C)n3)ncn1-2` [Compound 174], the activation at 0.1 µM was greater than 50%.
Regarding `CCc1nc(-c2ncn3c2Cc2c(C)nnn2-c2cc(F)ccc2-3)no1` [Compound 155], the activation at 0.1 µM fell in the range of 20 to 49%.
Consider `CCOC(=O)c1ncn2c1Cc1c(Cc3ccc(Cl)cc3)nnn1-c1cc(F)ccc1-2` [Compound 45], for which the activation at 0.1 µM was 20 to 49%.

Values taken from patent US11312721B2 (priority 2015, dated 2022).
